Data published in patent US20110136666A1, “CHEMICAL COMPOUNDS” (SYNGENTA CROP PROTECTION, INC., priority 2008, published 2011).

Tests used:
Format in all cases: in vivo
[1] = system: Alopecurus myosuroides (ALOMY); experiment: Pre-emergence biological efficacy, glasshouse pot test; conditions: 312 h, 1000 g/ha, after 13 days, 100=total damage, 0=no damage, read-out: Percentage damage caused to weed species ALOMY
Method: (§1) Seeds of Alopecurus myosuroides (ALOMY), Setaria faberi (SETFA), Echinochloa crus-galli (ECHCG), Solanum nigrum (SOLNI), Amaranthus retroflexus (AMARE) and Ipomea hederaceae (IPOHE) were sown in standard soil in pots. After cultivation for one day under controlled conditions in a glasshouse (at 24/16° C., day/night; 14 hours light; 65% humidity), the plants were sprayed with an aqueous spray solution derived from the formulation of the technical active ingredient in acetone/water (50:50) solution containing 0.5% Tween 20 (polyoxyethylene sorbitan monolaurate, CAS RN 9005-64-5) to give a final dose of 250 or 1000 g/ha of test compound.
(§2) The test plants were then grown under controlled conditions in the glasshouse (at 24/16° C., day/night; 14 hours light; 65% humidity) and watered twice daily. After 13 days the test was evaluated (100=total damage to plant; 0=no damage to plant).

[2] = system: Amaranthus retroflexus (AMARE); experiment: as above; conditions: 312 h, 1000 g/ha, after 13 days, 100=total damage, 0=no damage, read-out: Percentage damage caused to weed species AMARE
Method: as §1, §2

[3] = system: Echinochloa crus-galli (ECHCG); experiment: as above; conditions: 312 h, 1000 g/ha, after 13 days, 100=total damage, 0=no damage, read-out: Percentage damage caused to weed species ECHCG
Method: as §1, §2

[4] = system: Ipomea hederaceae (IPOHE); experiment: as above; conditions: Ipomoea hederacea, 312 h, 1000 g/ha, after 13 days, 100=total damage, 0=no damage, read-out: Percentage damage caused to weed species IPOHE
Method: as §1, §2

Setaria faberi (SETFA) [5] = experiment: as above; conditions: 312 h, 1000 g/ha, after 13 days, 100=total damage, 0=no damage, read-out: Percentage damage caused to weed species SETFA
Method: as §1, §2

Solanum nigrum (SOLNI) [6] = experiment: as above; conditions: 312 h, 1000 g/ha, after 13 days, 100=total damage, 0=no damage, read-out: Percentage damage caused to weed species SOLNI
Method: as §1, §2

[7] = system: Alopecurus myosuroides (ALOMY); experiment: Post-emergence biological efficacy, glasshouse pot test; conditions: 312 h, 1000 g/ha, after 13 days, 100=total damage, 0=no damage, read-out: Percentage damage caused to weed species ALOMY
Method: as §1, with “8 days” for “one day”
(§3) The test plants were then grown on under controlled conditions in a glasshouse (at 24/16° C., day/night; 14 hours light; 65% humidity) and watered twice daily. After 13 days the test was evaluated (100=total damage to plant; 0=no damage to plant).

[8] = system: Amaranthus retroflexus (AMARE); experiment: as above; conditions: 312 h, 1000 g/ha, after 13 days, 100=total damage, 0=no damage, read-out: Percentage damage caused to weed species AMARE
Method: as §1, with “8 days” for “one day”
as §3

[9] = system: Echinochloa crus-galli (ECHCG); experiment: as above; conditions: 312 h, 1000 g/ha, after 13 days, 100=total damage, 0=no damage, read-out: Percentage damage caused to weed species ECHCG
Method: as §1, with “8 days” for “one day”
as §3

[10] = system: Ipomea hederaceae (IPOHE); experiment: as above; conditions: Ipomoea hederacea, 312 h, 1000 g/ha, after 13 days, 100=total damage, 0=no damage, read-out: Percentage damage caused to weed species IPONE
Method: as §1, with “8 days” for “one day”
as §3

Setaria faberi (SETFA) [11] = experiment: as above; conditions: 312 h, 1000 g/ha, after 13 days, 100=total damage, 0=no damage, read-out: Percentage damage caused to weed species SETFA
Method: as §1, with “8 days” for “one day”
as §3

Solanum nigrum (SOLNI) [12] = experiment: as above; conditions: 312 h, 1000 g/ha, after 13 days, 100=total damage, 0=no damage, read-out: Percentage damage caused to weed species SOLNI
Method: as §1, with “8 days” for “one day”
as §3

Nc1nc(-c2ccc(Cl)s2)nc(C(=O)O)c1Cl [Compound 1-2, 4-amino-5-chloro-2-(5-chlorothiophen-2-yl)-pyrimidine-6-carboxylic acid]
pest or weed control at 1000 g/ha [1]: 0%
pest or weed control at 1000 g/ha [2]: 100%
pest or weed control at 1000 g/ha [3]: 0%
pest or weed control at 1000 g/ha [4]: 0%
pest or weed control at 1000 g/ha (Setaria faberi (SETFA) [5]): 0%
pest or weed control at 1000 g/ha (Solanum nigrum (SOLNI) [6]): 30%
pest or weed control at 1000 g/ha [7]: 10%
pest or weed control at 1000 g/ha [8]: 100%
pest or weed control at 1000 g/ha [9]: 20%
pest or weed control at 1000 g/ha [10]: 60%
pest or weed control at 1000 g/ha (Setaria faberi (SETFA) [11]): 50%
pest or weed control at 1000 g/ha (Solanum nigrum (SOLNI) [12]): 80%

COC(=O)c1nc(-c2cccs2)nc(N)c1Cl [Compound 2-1, 4-Amino-5-chloro-6-methoxycarbonyl-2-thiophen-2-ylpyrimidine]
pest or weed control at 1000 g/ha [1]: 0%
pest or weed control at 1000 g/ha [2]: 0%
pest or weed control at 1000 g/ha [3]: 0%
pest or weed control at 1000 g/ha [4]: 0%
pest or weed control at 1000 g/ha (Setaria faberi (SETFA) [5]): 0%
pest or weed control at 1000 g/ha (Solanum nigrum (SOLNI) [6]): 0%
pest or weed control at 1000 g/ha [7]: 0%
pest or weed control at 1000 g/ha [8]: 0%
pest or weed control at 1000 g/ha [9]: 0%
pest or weed control at 1000 g/ha [10]: 50%
pest or weed control at 1000 g/ha (Setaria faberi (SETFA) [11]): 0%
pest or weed control at 1000 g/ha (Solanum nigrum (SOLNI) [12]): 0%

COC(=O)c1nc(-c2ccc(Cl)s2)nc(N)c1Cl [Compound 2-2, 4-Amino-5-chloro-2-(5-chlorothiophen-2-yl)-6-methoxycarbonyl pyrimidine]
pest or weed control at 1000 g/ha [1]: 0%
pest or weed control at 1000 g/ha [2]: 80%
pest or weed control at 1000 g/ha [3]: 0%
pest or weed control at 1000 g/ha [4]: 20%
pest or weed control at 1000 g/ha (Setaria faberi (SETFA) [5]): 0%
pest or weed control at 1000 g/ha (Solanum nigrum (SOLNI) [6]): 0%
pest or weed control at 1000 g/ha [7]: 0%
pest or weed control at 1000 g/ha [8]: 100%
pest or weed control at 1000 g/ha [9]: 0%
pest or weed control at 1000 g/ha [10]: 70%
pest or weed control at 1000 g/ha (Setaria faberi (SETFA) [11]): 0%
pest or weed control at 1000 g/ha (Solanum nigrum (SOLNI) [12]): 90%

COC(=O)c1nc(-c2ccc(C#N)s2)nc(N)c1Cl [Compound 2-3, 4-Amino-5-chloro-2-(5-cyanothiophen-2-yl)-6-methoxycarbonyl pyrimidine]
pest or weed control at 1000 g/ha [1]: 0%
pest or weed control at 1000 g/ha [2]: 0%
pest or weed control at 1000 g/ha [3]: 0%
pest or weed control at 1000 g/ha [4]: 0%
pest or weed control at 1000 g/ha (Setaria faberi (SETFA) [5]): 0%
pest or weed control at 1000 g/ha (Solanum nigrum (SOLNI) [6]): 0%
pest or weed control at 1000 g/ha [7]: 0%
pest or weed control at 1000 g/ha [8]: 0%
pest or weed control at 1000 g/ha [9]: 0%
pest or weed control at 1000 g/ha [10]: 0%
pest or weed control at 1000 g/ha (Setaria faberi (SETFA) [11]): 0%
pest or weed control at 1000 g/ha (Solanum nigrum (SOLNI) [12]): 0%

COC(=O)c1nc(-c2ccc(OC)s2)nc(N)c1Cl [Compound 2-7, 4-Amino-5-chloro-6-methoxycarbonyl-2-(5-methoxythiophen-2-yl)-pyrimidine]
pest or weed control at 1000 g/ha [1]: 0%
pest or weed control at 1000 g/ha [2]: 90%
pest or weed control at 1000 g/ha [3]: 60%
pest or weed control at 1000 g/ha [4]: 20%
pest or weed control at 1000 g/ha (Setaria faberi (SETFA) [5]): 20%
pest or weed control at 1000 g/ha (Solanum nigrum (SOLNI) [6]): 0%
pest or weed control at 1000 g/ha [7]: 0%
pest or weed control at 1000 g/ha [8]: 100%
pest or weed control at 1000 g/ha [9]: 80%
pest or weed control at 1000 g/ha [10]: 80%
pest or weed control at 1000 g/ha (Setaria faberi (SETFA) [11]): 70%
pest or weed control at 1000 g/ha (Solanum nigrum (SOLNI) [12]): 80%
